According to patent US20240409609A1, “REVERSIBLE LYSINE COVALENT MODIFIERS OF EGFR AND USES THEREOF” (Terremoto Biosciences, Inc., priority 2021, published 2024):
Each block holds one compound with its values, some of them ahead of it.

Experiments:
[1] = molecular target: EGFR WT (Homo sapiens (Human), UniProt P00533); experiment: EGFR biochemical assay (AssayQuant chelation-enhanced fluorescence); settings: 30 min preincubation, reaction time 360 min
[2] = molecular target: EGFR WT in Ba/F3 cells (Homo sapiens (Human), UniProt P00533); experiment: Ba/F3 pEGFR assay (AlphaLISA p-EGFR Tyr1068); type: cell-based; settings: 2 hrs treatment, media supplemented with EGF
Sequence of EGFR WT in Ba/F3 cells (P00533 25-1210): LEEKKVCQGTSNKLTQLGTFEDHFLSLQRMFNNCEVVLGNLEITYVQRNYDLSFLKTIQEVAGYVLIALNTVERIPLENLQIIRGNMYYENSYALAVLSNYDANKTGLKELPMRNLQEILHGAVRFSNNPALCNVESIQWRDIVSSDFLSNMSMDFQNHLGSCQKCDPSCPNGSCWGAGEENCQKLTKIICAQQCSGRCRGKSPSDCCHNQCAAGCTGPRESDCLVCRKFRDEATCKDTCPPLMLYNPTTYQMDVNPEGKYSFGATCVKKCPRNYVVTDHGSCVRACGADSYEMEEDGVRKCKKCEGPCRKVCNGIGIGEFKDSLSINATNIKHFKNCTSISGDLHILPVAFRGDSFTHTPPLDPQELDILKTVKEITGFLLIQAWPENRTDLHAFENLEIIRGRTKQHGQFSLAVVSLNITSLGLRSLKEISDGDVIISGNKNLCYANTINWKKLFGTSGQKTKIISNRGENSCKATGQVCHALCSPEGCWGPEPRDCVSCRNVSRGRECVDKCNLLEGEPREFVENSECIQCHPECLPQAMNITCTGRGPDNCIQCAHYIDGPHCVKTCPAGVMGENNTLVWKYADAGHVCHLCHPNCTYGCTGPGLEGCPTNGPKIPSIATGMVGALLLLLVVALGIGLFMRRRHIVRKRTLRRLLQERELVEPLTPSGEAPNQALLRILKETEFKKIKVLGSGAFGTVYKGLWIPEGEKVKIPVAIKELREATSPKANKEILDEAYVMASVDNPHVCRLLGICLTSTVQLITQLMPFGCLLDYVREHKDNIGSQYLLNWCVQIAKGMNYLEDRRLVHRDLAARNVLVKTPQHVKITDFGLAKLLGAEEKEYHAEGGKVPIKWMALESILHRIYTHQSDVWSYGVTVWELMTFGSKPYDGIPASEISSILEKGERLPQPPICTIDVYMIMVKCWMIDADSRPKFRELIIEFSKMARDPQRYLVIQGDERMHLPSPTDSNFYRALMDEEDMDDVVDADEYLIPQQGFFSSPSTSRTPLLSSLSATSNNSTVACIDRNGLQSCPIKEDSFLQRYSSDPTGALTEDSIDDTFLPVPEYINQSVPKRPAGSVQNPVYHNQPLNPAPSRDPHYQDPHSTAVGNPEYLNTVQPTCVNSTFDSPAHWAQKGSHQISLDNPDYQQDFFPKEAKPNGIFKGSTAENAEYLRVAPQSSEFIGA
Experimental: Cellular activity was determined using the Ba/F3 system for studying oncogenic mutant kinases (Warmuth 2007). […] Transduced cells were maintained in RPMI 1640 with 10% FBS. EGFR WT transduced cells were grown in media supplemented with EGF. To assay cellular activity of inhibitors, cells were treated with inhibitor from 1000X DMSO stock dilutions and incubated for 2 hrs at 37° C. 5% CO2. Subsequently, p-EGFR (Tyr1068) was quantified using a commercial sandwich immunoassay (PerkinElmer AlphaLISA SureFire assay; ALSU-PEGFR) according to the manufacturer's instructions. […] Curr Opin Oncol 19, 55-60 (2007), which is incorporated herein in its entirety.

Sequence of EGFR WT (P00533 668-1210): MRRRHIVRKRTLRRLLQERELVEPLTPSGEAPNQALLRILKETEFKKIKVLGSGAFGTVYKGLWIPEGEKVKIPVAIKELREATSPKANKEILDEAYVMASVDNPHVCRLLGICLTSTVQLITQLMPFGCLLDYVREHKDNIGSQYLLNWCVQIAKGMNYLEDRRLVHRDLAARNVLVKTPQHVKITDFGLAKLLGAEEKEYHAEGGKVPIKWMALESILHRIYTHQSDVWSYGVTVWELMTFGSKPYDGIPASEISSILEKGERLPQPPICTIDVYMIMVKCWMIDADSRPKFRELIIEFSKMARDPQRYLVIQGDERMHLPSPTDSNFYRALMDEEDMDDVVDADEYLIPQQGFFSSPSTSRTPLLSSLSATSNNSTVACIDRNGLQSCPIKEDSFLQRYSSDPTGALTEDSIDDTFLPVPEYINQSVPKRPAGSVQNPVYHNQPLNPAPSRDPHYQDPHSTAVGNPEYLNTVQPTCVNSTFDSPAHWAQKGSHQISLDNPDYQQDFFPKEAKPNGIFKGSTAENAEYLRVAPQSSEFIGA

Compound: CN1CCN(Cc2ccc3[nH]/c(=N\C(=O)c4ccnc(Oc5cccc(O)c5C=O)c4F)n(CC(C)(C)O)c3c2)CC1 [Compound 82]
IC50 [1]: 67.9 nM
IC50 [2]: > 10000 nM

Compound: CN1CCN(Cc2ccc3[nH]/c(=N\C(=O)c4ccnc(C#Cc5cccc(NC(=O)C6CC6)c5C=O)c4)n(CC(C)(C)O)c3c2)CC1 [Compound 87]
IC50 [1]: 42 nM
IC50 [2]: 267 nM

Compound: CC(C)(O)Cn1/c(=N/C(=O)c2ccnc(CCc3cccc(O)c3C=O)c2)[nH]c2ccccc21 [Compound 135]
IC50 [1]: 80.1 nM
IC50 [2]: 5200 nM

Compound: COc1cc(N2CCC(N3CCN(C)CC3)CC2)ccc1Nc1ncc(-c2cc(C=O)c(O)cc2OC)c(Nc2ccccc2)n1 [Compound 13]
IC50 [1]: 94 nM
IC50 [2]: > 10000 nM

Compound: CN1CCN(Cc2ccc3[nH]/c(=N\C(=O)c4ccnc(C#Cc5cc(F)cc(O)c5C=O)c4)n(CC(C)(C)O)c3c2)CC1 [Compound 89]
IC50 [1]: 49.1 nM
IC50 [2]: > 5820 nM

Compound: CC(=O)Nc1cccc(C#Cc2cc(C(=O)/N=c3\[nH]c4ccc(CN5CCN(C)CC5)cc4n3CC(C)(C)O)ccn2)c1C=O [Compound 90]
IC50 [1]: 85.4 nM
IC50 [2]: 950 nM

Compound: CC(C)c1ccc(N2CC(CS(C)(=O)=O)C2)c2cnc(Nc3ccnc(COc4cccc(O)c4C=O)n3)cc12 [Compound 42]
IC50 [1]: 181 nM
IC50 [2]: > 10000 nM

Compound: CC(=O)Nc1cccc(C#Cc2cc(C(=O)/N=c3\[nH]c4ccc(CN5CCN(C)CC5)cc4n3CC(C)(C)O)cc(C)n2)c1C=O [Compound 97]
IC50 [1]: 115 nM
IC50 [2]: 7950 nM

Compound: COc1cc(N(C)CCN(C)C)c(NC(C)=O)cc1Nc1nccc(-c2cn(Cc3ccc(C=O)c(O)c3)c3ccccc23)n1 [Compound 29]
IC50 [1]: > 1000 nM
IC50 [2]: > 10000 nM

Compound: CN(C)C/C=C/C(=O)N1CCCC[C@@H](n2c(NC(=O)c3ccnc(-n4cc(-c5cccc(O)c5C=O)cn4)c3)nc3cccc(Cl)c32)C1 [Compound 125]
IC50 [1]: 29.4 nM
IC50 [2]: 4900 nM

Compound: CC(C)(O)Cn1/c(=N/C(=O)c2ccnc(C#Cc3cccc(O)c3C=O)c2)[nH]c2ccccc21 [Compound 127]
IC50 [1]: 38.2 nM
IC50 [2]: > 10000 nM

Compound: CN1CCN(Cc2ccc3[nH]/c(=N\C(=O)c4ccnc(-n5ccc(-c6cccc(O)c6C=O)n5)c4)n(CC(C)(C)O)c3c2)CC1 [Compound 83]
IC50 [1]: 131 nM
IC50 [2]: > 10000 nM

Compound: CN1CCN(Cc2ccc3[nH]/c(=N\C(=O)c4cc(Cl)nc(Cc5cccc(O)c5C=O)c4)n(CC(C)(C)O)c3c2)CC1 [Compound 86]
IC50 [1]: 23.8 nM
IC50 [2]: > 10000 nM

Compound: CC(C)(O)Cn1/c(=N/C(=O)c2ccnc(COc3cccc(O)c3C=O)c2)[nH]c2ccccc21 [Compound 133]
IC50 [1]: 316 nM
IC50 [2]: > 10000 nM

Compound: CN1CCN(Cc2ccc3[nH]/c(=N\C(=O)c4ccc(Oc5cccc(O)c5C=O)cc4)n(CC(C)(C)O)c3c2)CC1 [Compound 105]
IC50 [1]: 280 nM
IC50 [2]: > 10000 nM

Compound: COc1cc(N2CCC(N3CCN(C)CC3)CC2)ccc1Nc1ncc(-c2cccc(C=O)c2O)c(Nc2ccccc2)n1 [Compound 5]
IC50 [1]: 398 nM
IC50 [2]: > 10000 nM

Compound: COc1cc(N2CCC(N3CCN(C)CC3)CC2)ccc1Nc1ncc(Cl)c(Nc2ccc(O)c(C=O)c2)n1 [Compound 35]
IC50 [1]: 292 nM
IC50 [2]: > 10000 nM

Compound: CC(C)(O)Cn1/c(=N/C(=O)c2ccnc(-c3ccc(-c4cccc(O)c4C=O)cc3)c2)[nH]c2ccccc21 [Compound 132]
IC50 [1]: > 1000 nM
IC50 [2]: > 10000 nM

Compound: Cc1cc(C(=O)/N=c2\[nH]c3ccc(CN4CCN(C)CC4)cc3n2CC(C)(C)O)cc(-n2cc(-c3cccc(O)c3C=O)cn2)n1 [Compound 102]
IC50 [1]: 348 nM
IC50 [2]: > 10000 nM

Compound: CN1CCN(Cc2ccc3[nH]/c(=N\C(=O)c4ccnc(OCc5cccc(O)c5C=O)c4)n(CC(C)(C)O)c3c2)CC1 [Compound 112]
IC50 [1]: > 1000 nM
IC50 [2]: 9870 nM

Compound: CN1CCN(Cc2ccc3[nH]/c(=N\C(=O)c4cc(C=O)nc(Oc5cccc(O)c5C=O)c4)n(CC(C)(C)O)c3c2)CC1 [Compound 81]
IC50 [1]: 28 nM
IC50 [2]: > 10000 nM

Compound: CN1CCN(Cc2ccc3[nH]/c(=N\C(=O)c4ccnc(-n5cc(-c6cccc(O)c6C=O)cn5)c4)n(CC(C)(C)O)c3c2)CC1 [Compound 85]
IC50 [1]: 52.1 nM
IC50 [2]: > 8830 nM

Compound: CN1CCN(c2ccc3[nH]/c(=N\C(=O)c4ccnc(Oc5cccc(O)c5C=O)c4)n(CC(C)(C)O)c3c2)CC1 [Compound 56]
IC50 [1]: 278 nM
IC50 [2]: 763 nM

Now from value to compound:

IC50 [1]: 18.6 nM
IC50 [2]: 2950 nM
Compound: CN1CCN(Cc2ccc3[nH]/c(=N\C(=O)c4ccnc(Oc5cc(F)cc(O)c5C=O)c4)n(CC(C)(C)O)c3c2)CC1 [Compound 66]

IC50 [1]: 17.9 nM
IC50 [2]: > 10000 nM
Compound: Cc1cc(Oc2cccc(O)c2C=O)cc(C(=O)/N=c2\[nH]c3ccc(CN4CCN(C)CC4)cc3n2CC(C)(C)O)c1 [Compound 61]

IC50 [1]: 8.71 nM
IC50 [2]: 2980 nM
Compound: CN1CCN(Cc2ccc3[nH]/c(=N\C(=O)c4cc(Oc5cccc(O)c5C=O)c5sccc5c4)n(CC(C)(C)O)c3c2)CC1 [Compound 107]

IC50 [1]: 11 nM
IC50 [2]: 70.8 nM
Compound: COc1cc(N2CCC(N3CCN(C)CC3)CC2)ccc1Nc1ncc(-c2ccc(O)c(C=O)c2F)c(Nc2ccccc2)n1 [Compound 11]

IC50 [1]: 9.32 nM
IC50 [2]: 1130 nM
Compound: Cc1ccc(C(=O)/N=c2\[nH]c3ccc(CN4CCN(C)CC4)cc3n2CC(C)(C)O)cc1Oc1cccc(O)c1C=O [Compound 59]

IC50 [1]: 19.1 nM
IC50 [2]: 9650 nM
Compound: CNc1nc(Nc2ccc(N3CCC(N4CCN(C)CC4)CC3)cc2OC)ncc1-c1ccc(O)c(C=O)c1 [Compound 15]

IC50 [1]: 8.75 nM
IC50 [2]: 3230 nM
Compound: CC(C)(O)Cn1/c(=N/C(=O)c2ccnc(Oc3cccc(O)c3C=O)c2)[nH]c2ccc(N3CCOCC3)cc21 [Compound 74]

IC50 [1]: 10.9 nM
IC50 [2]: 4770 nM
Compound: CC(C)(O)Cn1/c(=N/C(=O)c2ccnc(Oc3cccc(O)c3C=O)c2)[nH]c2ccc(CN3CCC(C(C)(C)O)CC3)cc21 [Compound 80]

IC50 [1]: 23.7 nM
IC50 [2]: > 8080 nM
Compound: CN1CCN(Cc2ccc3[nH]/c(=N\C(=O)c4ccnc(Oc5ccc(F)c(O)c5C=O)c4)n(CC(C)(C)O)c3c2)CC1 [Compound 77]

IC50 [1]: 8.29 nM
IC50 [2]: 2850 nM
Compound: CN1CCN(Cc2ccc3[nH]/c(=N\C(=O)c4cc(F)nc(Oc5cccc(O)c5C=O)c4)n(CC(C)(C)O)c3c2)CC1 [Compound 60]

IC50 [1]: 8.96 nM
IC50 [2]: 1420 nM
Compound: CN1CCN(Cc2ccc3[nH]/c(=N\C(=O)c4ccnc(Oc5cccc(O)c5C=O)c4)n(CC(C)(C)O)c3c2)CC1 [Compound 64]

IC50 [1]: 8.81 nM
IC50 [2]: > 10000 nM
Compound: CC(C)(O)Cn1/c(=N/C(=O)c2ccnc(C#Cc3cccc(O)c3C=O)c2)[nH]c2ccc(CN3CCOCC3)cc21 [Compound 78]

IC50 [1]: 6.03 nM
IC50 [2]: 1770 nM
Compound: CN1CCN(Cc2ccc3[nH]/c(=N\C(=O)c4ccnc(C#Cc5c(F)ccc(O)c5C=O)c4)n(CC(C)(C)O)c3c2)CC1 [Compound 57]

IC50 [1]: 13 nM
IC50 [2]: 2030 nM
Compound: CN(C)C/C=C/C(=O)N1CCCC[C@@H](n2c(NC(=O)c3ccnc(Oc4cccc(O)c4C=O)c3)nc3cccc(Cl)c32)C1 [Compound 126]

IC50 [1]: 8.24 nM
IC50 [2]: 5260 nM
Compound: O=Cc1c(O)cccc1Oc1cc(C(=O)/N=c2\[nH]c3ccccc3n2[C@H]2CC[C@@H](O)CC2)ccn1 [Compound 122]

IC50 [1]: 10.1 nM
IC50 [2]: 5000 nM
Compound: CN1CCN(Cc2ccc3[nH]/c(=N\C(=O)c4ccc(Oc5cccc(O)c5C=O)s4)n(CC(C)(C)O)c3c2)CC1 [Compound 73]

IC50 [1]: 7.8 nM
IC50 [2]: > 10000 nM
Compound: CN1CCN(Cc2ccc3[nH]/c(=N\C(=O)c4ccnc(C#Cc5ccc(F)c(O)c5C=O)c4)n(CC(C)(C)O)c3c2)CC1 [Compound 72]
